# According to patent publication US7622472B2, “Combination of Src kinase inhibitors and chemotherapeutic agents for the treatment of proliferative diseases” (priority 2003, dated 2009):
# Columns and labels:
# [1] = tested on: Src family kinases (SFKs, including: Fyn, Yes, Yrk, Blk, Fgr, Hck, Lyn, and Frk subfamily members Frk/Rak and Iyk/Bsk); test: Inhibition of Src family kinases (statement, no method); format: biochemical; conditions: competes with ATP for the ATP-binding site in the kinase domain
# [2] = tested on: PC3 human prostate carcinoma xenografts; test: In vivo antitumor testing, PC3 human prostate carcinoma xenografts in nude mice; conditions: single agent compound 1, 10 mpk, orally, twice-a-day, 5-day-on, 2-day-off, 14 days
# Text: Tumors were propagated as subcutaneous transplants using tumor fragments obtained from donor mice.
# For treatment of early-stage tumors, the animals were again pooled before distribution to the various treatment and control groups. For treatment of animals with advanced-stage disease, tumors were allowed to grow to the pre-determined size window (tumors outside the range were excluded) and animals were evenly distributed to various treatment and control groups. Treatment of each animal was based on individual body weight. Treated animals were checked daily for treatment related toxicity/mortality. Each group of animals was weighed before the initiation of treatment (Wt1) and then again following the last treatment dose (Wt2). The difference in body weight (Wt2−Wt1) provides a measure of treatment-related toxicity. Tumor response was determined by measurement of tumors with a caliper twice a week, until the tumors reach a predetermined “target” size of 1 gm. Tumor weights (mg) were estimated from the formula: Tumor weight=(length×width2)÷2 Antitumor activity was evaluated at the maximum tolerated dose (MTD) which is defined as the dose level immediately below which excessive toxicity (i.e. more than one death) occurred. […] When death occurs, the day of death was recorded.
smiles,measurement,setting,value
"Cc1nc(Nc2ncc(C(=O)Nc3c(C)cccc3Cl)s2)cc(N2CCN(CCO)CC2)n1 [Compound 1, ′N-(2-Chloro-6-methylphenyl)-2-[[6-[4-(2-hydroxyethyl)-1-piperazinyl]-2-methyl-4-pyrimidinyl]amino]-5-thiazolecarboxamide]",inhibition of Src family kinases,[1],potently inhibits
same,growth delay (T-C),[2],4.5 days
same,tumor growth inhibition (% T/C),[2],58%
